Legend:
[1] = system: grass carp pituitary cells; assay: Signal transduction: pathway inhibitors on GnRH-induced anorectic gene mRNA; type: cell-based, grass carp (Ctenopharyngodon idellus); settings: U73122 10 μM, GF109203X 20 μM, 2-APB 100 μM, MDL12330A 20 μM, H89 20 μM, nifedipine 10 μM, calmidazolium 1 μM, KN62 5 μM; for blockade of GnRH2-induced POMCb, CART2, UTS1, NMBa, NMBb, and LEPR mRNA expression: cotreated with GnRH2, 24 h; for blockade of GnRH3-induced POMCb, CART2, UTS1, NMBa, NMBb, and LEPR mRNA expression: cotreated with GnRH3, 24 h
Method: (§1) The preparation of grass carp pituitary cells was performed as mentioned above. After drug treatment, the total RNA of these cells was isolated by TRIzol reagent and reverse transcribed into cDNA with Hifair™ III 1st Strand cDNA Synthesis Kit. The transcript levels of several anorectic peptides (POMCb, CART2, UTS1, NMBa, NMBb, and Lepr) and reproductive genes (GtHα, LHβ, FSHβ, INHBa, SgII, DRD2) were detected by using an ABI 7500 quantitative real-time PCR (qRT-PCR) system (Biosystems, USA) (information of primers for target genes is listed in Supplementary Table S3 ). In this process, a serial gradient dilution of plasmid DNA of these genes was used as a standard for data calibration. The conditions of qRT-PCR were set to 10 min, 95°C, for pre-degeneration; 15 s, 95°C, for degeneration; 30 s, 55°C–60°C, for annealing; 30 s, 72°C, for extending; and 20 s, 82°C, for signal detection with 40 cycles. Finally, the melt curve obtained through each test was used to verify and check the reliability and specificity of the corresponding qRT-PCR.
To explore the signal transduction for GnRH-induced target gene mRNA expression, the method mentioned above was performed.
(§2) Figure 10 Signal transduction for GnRH2- and GnRH3-induced POMCb, CART2, UTS1, NMBa, NMBb, and LEPR mRNA expression in grass carp pituitary cells. In this experiment, GnRH2 (A) or GnRH3 (B) combined with/without the PLC inhibitor U73122 (10 μM), PKC inhibitor GF109203X (20 μM), or IP3 receptor blocker 2-APB (100 μM) was used to incubate the grass carp pituitary cells for 24 (h) After drug treatment, the total RNA was extracted from the cells for real-time PCR of the respective genes. Data presented are expressed as mean ± SEM, and the different letters represent a significant difference at p < 0.05 between groups (ANOVA followed by a Dunnett test).
as §2, with “11” for “10”, “AC” for “PLC”, “MDL12330A (20 μM) or PKA” for “U73122 (10 μM), PKC”, “H89” for “GF109203X”, “(20” for “(20 μM), or IP3 receptor blocker 2-APB (100”
Figure 12 Signal transduction for GnRH2- and GnRH3-induced POMCb, CART2, UTS1, NMBa, NMBb, and LEPR mRNA expression in grass carp pituitary cells. […] Data presented are expressed as mean ± SEM, and the differences between groups were significant at p < 0.05 by labelling diverse letters (ANOVA followed by a Dunnett test).

DRD2 = settings: teleost; ref [37]; cited from earlier work
[2] = system: grass carp pituitary cells; assay: Signal transduction: pathway inhibitors on GnRH-regulated reproductive gene mRNA; type: cell-based, grass carp (Ctenopharyngodon idellus); settings: U73122 10 μM, GF109203X 20 μM, 2-APB 100 μM, MDL12330A 20 μM, H89 20 μM, nifedipine 10 μM, calmidazolium 1 μM, KN62 5 μM; for blockade of GnRH2-induced GtHα, LHβ, FSHβ, INHBa, and SgII mRNA expression: cotreated with GnRH2, 24 h; for blockade of GnRH3-induced GtHα, LHβ, FSHβ, INHBa, and SgII mRNA expression: cotreated with GnRH3, 24 h
Method: as §1
In this experiment, GnRH2 (A) or GnRH3 (B) combined with/without the PLC inhibitor U73122 (10 μM), PKC inhibitor GF109203X (20 μM), or IP3 receptor blocker 2-APB (100 μM) was used to incubate the grass carp pituitary cells for 24 (h) After drug treatment, the total RNA was extracted from the cells for real-time PCR of the respective genes. Data presented are expressed as mean ± SEM, and the different letters represent a significant difference at p < 0.05 between groups (ANOVA followed by a Dunnett test).
In this experiment, GnRH2 (A) or GnRH3 (B) combined with/without the AC inhibitor MDL12330A (20 μM) or PKA inhibitor H89 (20 μM) was used to incubate the grass carp pituitary cells for 24 (h) After drug treatment, the total RNA was extracted from the cells for real-time PCR of the respective genes. Data presented are expressed as mean ± SEM, and the different letters represent a significant difference at p < 0.05 between groups (ANOVA followed by a Dunnett test).
Data presented are expressed as mean ± SEM, and the different letters represent a significant difference at p < 0.05 between groups (ANOVA followed by a Dunnett test).

grass carp pituitary = settings: ref [15]; cited from earlier work
Text: As we know, energy metabolism was associated with reproductive behavior in vertebrates ([11]), and adequate energy reserve was essential for breeding ([12]).

Row | Compound | blockade of GnRH2-induced POMCb, CART2, UTS1, NMBa, NMBb, and LEPR mRNA expression [1] | blockade of GnRH3-induced POMCb, CART2, UTS1, NMBa, NMBb, and LEPR mRNA expression [1] | effect on LH synthesis via activation of DRD2 (DRD2) | blockade of GnRH2-induced GtHα, LHβ, FSHβ, INHBa, and SgII mRNA expression [2] | blockade of GnRH3-induced GtHα, LHβ, FSHβ, INHBa, and SgII mRNA expression [2] | effect on LH secretion and synthesis (grass carp pituitary)
1 | COC(=O)C1=C(C)NC(C)=C(C(=O)OC)C1c1ccccc1[N+](=O)[O-] [nifedipine] | could block | could block |  |  |  | 
2 | NCCc1ccc(O)c(O)c1 [dopamine] |  |  | inhibited |  |  | 
3 | NCCOB(c1ccccc1)c1ccccc1 [2-APB] | could block | could block |  | could block | could block | 
4 | COc1ccc2c(c1)CC[C@@H]1[C@@H]2CC[C@]2(C)[C@@H](NCCCCCCN3C(=O)C=CC3=O)CC[C@@H]12 [U73122] | could block | could block |  | could block | could block | 
5 | CN([C@@H](Cc1ccc(OS(=O)(=O)c2cccc3cnccc23)cc1)C(=O)N1CCN(c2ccccc2)CC1)S(=O)(=O)c1cccc2cnccc12 [KN62] | could block | could block |  | could also block | could also block | 
6 | Clc1ccc(C(c2ccc(Cl)cc2)n2cc[n+](CC(OCc3ccc(Cl)cc3Cl)c3ccc(Cl)cc3Cl)c2)cc1 (centres unmarked) [calmidazolium] | could block | could block |  | could also block | could also block | 
7 | prolactin-releasing peptide [PRRP] |  |  |  |  |  | significantly induce
8 | CN(C)CCCn1cc(C2=C(c3c[nH]c4ccccc34)C(=O)NC2=O)c2ccccc21 [GF109203X] | could block | could block |  | could block | could block | 
9 | O=S(=O)(NCCNC/C=C/c1ccc(Br)cc1)c1cccc2cnccc12 [H89] | could block | could block |  | could also be blocked | could also be blocked | 
10 | Cl.c1ccc(C2CCCC2NC2=NCCCCCCCCCCC2)cc1 (centres unmarked) [MDL12330A] | could block | could block |  | could also be blocked | could also be blocked | 
